Data published in patent US20240002424A1, “HEXOSAMINE COMPOUNDS AND METHODS THEREOF” (National Institute of Immunology, priority 2021, published 2024).

Tested on: Jurkat cells
Assay: NeuAz expression on the cell surface by SPAAC with DBCO-Cy5 and flow cytometry, competition with Ac4ManNAz (1c)
Assay type: cell-based, human
Conditions: Ac4ManNAz (Z) 50 μM plus analogue at 10, 25, 50 μM, 24 h
Protocol: FIG. 5 illustrates competitive processing by compounds of the present invention (ManNAc compounds). ManNAc compounds competitively reduce the expression of N-azidoacetyl-D-neuraminic acid (NeuAz)-carrying sialoglycans through the metabolic processing of Ac4ManNAz. Jurkat (human T-lymphoma) cells were incubated with Ac4ManNAz (Z) (50 μM) alone, co-incubated with GL-2, GL-3, MA-2, or MA-3 (at various concentrations such as 10,
25, and 50 μM) for 24 h. Expression of N-azidoacetyl-D-neuraminic acid (NeuAz) on the cell surface sialoglycans was estimated using strain-promoted azide-alkyne cycloaddition (SPAAC) with DBCO-Cy5 and analyzed by flow cytometry. […] GL-2 was used for comparative study and the structure of this compound is as below.
Jurkat cells (3.0×10^5 cells/mL; 2.5 mL per well in 6-well plates) in complete medium were treated with either vehicle (D) or Compound 1c; Untreated Jurkat cells, without addition of vehicle, were also included as additional controls. Cells were harvested at 48 h, washed thrice with PBS (3×0.5 mL) (3000×g, 2.0 min). Prior to the last wash cells were counted and were aliquoted to 1.0×10^6 cells per sample in 1.5 mL microcentrifuge tubes and centrifuged. The cells were gently resuspended in PBS ([…]) and treated with DBCO-Cy5 ([…]) and incubated at 37° C. (on a Torrey-Pines dry heating bath with mild shaking). After one hour, the cells were washed using FSB (0.5 mL, 3000×g, 2.0 min, room temperature), resuspended in PBS (250 mL), treated with PI (2.5 mg/mL), and analyzed using BD FACSCanto and FACSDiva Version 6.1.3. The cells were gated for PI-negative population for 10,000 events. Two replicate samples were prepared for each conditions and each sample was counted twice.
Estimation of NeuAz expression by 1c in the presence of peracetylated ManNAc analogues: Jurkat cells (3.0×10^5 cells/mL in 3.0 mL per well in 6-well plates) were incubated with (i) D, (ii) 1a, 1b, 1c, or 1d alone (50 mM) or (iii) 1a, 1b, or 1d (50 mM) in combination with 1c (50 mM). After 24 h, cells were harvested, washed using FSB, aliquoted to 5.0×10^5 cells per sample, and processed as mentioned above for estimation of NeuAz expression using DBCO-Cy5 ([…]). Experiments using HL-60 cells were performed using the same procedure. […]
Effect of GlcNAc and ManNAc analogues on NeuAz expression: Jurkat cells were treated with 1a, 1b, 2a, or 2b (10, 25, and 50 mM for each analogue) in combination with 1c (50 mM). Cells treated with 1c (50 mM) alone were considered as a reference. After 24 h, cells were harvested, processed, labelled with DBCO-Cy5 ([…]), and analysed by flow cytometry as mentioned above.
In order to evaluate the metabolism, Jurkat (human T-lymphoma) cells were selected and incubated with ManNAc analogues either alone (50 μM) or in combination with 1c (50 μM) for 48 h. Expression of NeuAz on cell surface was estimated by flow cytometry through the copper-free bio-orthogonal strain-promoted azide-alkyne cycloaddition (SPAAC) reaction using dibenzocyclooctyne-Cy5 (DBCO-Cy5). The conditions for click reaction were optimized for various concentrations of DBCO-Cy5 and time course of SPAAC reaction in Jurkat cells. Based on the optimization results, incubation time of 30 min at 37° C. for 5.0×10^5 cells (pre-incubated with 1c for 48 h) with 20 μM of DBCO-Cy5 in 100 μL total volume for experiments with ManNAc analogues was chosen. […] In order to test the dose-dependency of this inhibitory effect on NeuAz expression and to establish competitive metabolic processing, Jurkat cells were first treated with either 1a or 1b (0-50 μM) followed by addition of 1c (50 μM) at 12 h and estimation of NeuAz at 48 h. As expected, the suppression of NeuAz expression was substantially higher when added with a 12 h delay compared to simultaneous addition, in a dose-dependent manner. […] By contrast simultaneous addition resulted only in a 10% reduction of NeuAz for both 1a and 1b (FIG. 6C and FIG. 7B).

| Structure (SMILES) | NeuAz expression upon co-incubation with Ac4ManNAz |
| --- | --- |
| CC(=O)OC[C@H]1OC(OC(C)=O)[C@@H](NC(=O)C2CCC2)[C@@H](OC(C)=O)[C@@H]1OC(C)=O (mixture of isomers) [Compound 1b, (3S,4R,5S,6R)-6-(acetoxymethyl)-3-(cyclobutanecarboxamido)tetrahydro-2H-pyran-2,4,5-triyl triacetate] | reduced competitively in a dose-dependent manner |
| CC(=O)OC[C@H]1OC(OC(C)=O)[C@H](NC(=O)C2CCC2)[C@@H](OC(C)=O)[C@@H]1OC(C)=O (mixture of isomers) [Compound 2b, (3R,4R,5S,6R)-6-(acetoxymethyl)-3-(cyclobutanecarboxamido)tetrahydro-2H-pyran-2,4,5-triyl triacetate] | not |
